Reference: patent US8580831B2, “Fluorinated aminotriazole derivatives” (Actelion Pharmaceuticals Ltd., priority 2009, dated 2013)

Each compound was assayed against T1, human ALX receptor (Homo sapiens, UniProt P25090) (assay: Intracellular calcium measurements (FLIPR), ALX receptor agonistic activity). Settings: HEK293-hALXR-Ga16 cells, calcium flux, normalized to WKYMVm 10 nM; read-out: EC50 (agonistic activity with respect to the ALX receptor).
T1 construct: expressed in transfected cells; host or cells: HEK293 (HEK293-hALXR-Ga16)
T1 sequence (P25090 1-351): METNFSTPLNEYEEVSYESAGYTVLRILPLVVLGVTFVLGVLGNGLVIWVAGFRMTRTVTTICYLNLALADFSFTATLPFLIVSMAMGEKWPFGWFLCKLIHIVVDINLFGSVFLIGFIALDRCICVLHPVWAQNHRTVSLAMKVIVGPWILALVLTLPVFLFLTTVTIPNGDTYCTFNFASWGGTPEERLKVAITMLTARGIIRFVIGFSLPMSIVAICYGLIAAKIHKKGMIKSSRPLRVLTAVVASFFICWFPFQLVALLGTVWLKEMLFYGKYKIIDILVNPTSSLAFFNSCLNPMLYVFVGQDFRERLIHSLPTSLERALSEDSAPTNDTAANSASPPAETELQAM
Format: cell-based
Protocol: The ALX receptor agonistic activity of the compounds of formula (I) is determined in accordance with the following experimental method.
Intracellular Calcium Measurements:
Cells expressing recombinant human ALX receptor and the G-protein Ga16 (HEK293-hALXR-Ga16) were grown to 80% confluency in Growing Medium (GM). Cells were detached from culture dishes with a cell dissociation buffer (Invitrogen, 13151-014), and collected by centrifugation at 1′000 rpm at rt for 5 min in Assay Buffer (AB) (equal parts of Hank's BSS (Gibco, 14065-049) and DMEM without Phenol Red (Gibco, 11880-028)). After 60 min incubation at 37° C. under 5% CO2 in AB supplemented with 1 μM Fluo-4 (AM) (Invitrogen, F14202) and 20 mM HEPES (Gibco, 15630-056), the cells were washed and resuspended in AB. They were then seeded onto 384-well FLIPR assay plates (Greiner, 781091) at 50′000 cells in 70 μl per well and sedimented by centrifugation at 1′000 rpm for 1 min. Stock solutions of test compounds were made up at a concentration of 10 mM in DMSO, and serially diluted in AB to concentrations required for activation dose response curves. WKYMVm (Phoenix Peptides) was used as a reference agonist. A FLIPR Tetra instrument (Molecular Devices) was operated according to the manufacturer's standard instructions, adding 4 μl of test compound dissolved at 10 mM in DMSO and diluted prior to the experiment in assay buffer to obtain the desired final concentration. Changes in fluorescence were monitored before and after the addition of test compounds at lex=488 nm and lem=540 nm. Emission peak values above base level after compounds addition were exported after base line subtraction. Values were normalized to high-level control (WKYMVm compound, 10 nM final concentration) after subtraction of the base line value (AB addition).

EC50 | Structure (SMILES)
8.1 nM | Cc1cccc(-c2oc(C)nc2C(=O)Nc2cnn(Cc3ccc(C(C)(F)F)o3)n2)c1 [Example 1, 2-Methyl-5-m-tolyl-oxazole-4-carboxylic acid {2-[5-(1,1-difluoro-ethyl)-furan-2-ylmethyl]-2H-[1,2,3]triazol-4-yl}-amide]
19 nM | CC(F)(F)c1csc(Cn2ncc(NC(=O)c3ncoc3-c3ccccc3)n2)n1 [Example 2, 5-Phenyl-oxazole-4-carboxylic acid {2-[4-(1,1-difluoro-ethyl)-thiazol-2-ylmethyl]-2H-[1,2,3]triazol-4-yl}-amide]
7.7 nM | Cc1cccc(-c2oc(C)nc2C(=O)Nc2cnn(Cc3nc(C(C)(F)F)cs3)n2)c1 [Example 3, 2-Methyl-5-m-tolyl-oxazole-4-carboxylic acid{2-[4-(1,1-difluoro-ethyl)-thiazol-2-ylmethyl]-2H-[1,2,3]triazol-4-yl}-amide]
0.9 nM | Cc1nc(C(=O)Nc2cnn(Cc3ccc(C(C)(F)F)o3)n2)c(-c2ccccc2)o1 [Example 4, 2-Methyl-5-phenyl-oxazole-4-carboxylic acid{2-[5-(1,1-difluoro-ethyl)-furan-2-ylmethyl]-2H-[1,2,3]triazol-4-yl}-amide]
818 nM | Cc1nc(C(=O)Nc2cnn(Cc3nc(C(C)(F)F)cs3)n2)c(-c2cc(F)cc(F)c2)o1 [Example 5, 5-(3,5-Difluoro-phenyl)-2-methyl-oxazole-4-carboxylic acid {2-[4-(1,1-difluoro-ethyl)-thiazol-2-ylmethyl]-2H-[1,2,3]triazol-4-yl}-amide]
14 nM | Cc1nc(C(=O)Nc2cnn(Cc3nc(C(C)(F)F)cs3)n2)c(-c2cccc(C(F)(F)F)c2)o1 [Example 6, 2-Methyl-5-(3-trifluoromethyl-phenyl)-oxazole-4-carboxylic acid {2-[4-(1,1-difluoro-ethyl)-thiazol-2-ylmethyl]-2H-[1,2,3]triazol-4-yl}-amide]
17 nM | CC(F)(F)c1ccc(Cn2ncc(NC(=O)c3ncoc3-c3cccc(Cl)c3)n2)o1 [Example 7, 5-(3-Chloro-phenyl)-oxazole-4-carboxylic acid{2-[5-(1,1-difluoro-ethyl)-furan-2-ylmethyl]-2H-[1,2,3]triazol-4-yl}-amide]
69 nM | COc1cccc(-c2ocnc2C(=O)Nc2cnn(Cc3nc(C(C)(F)F)cs3)n2)c1 [Example 8, 5-(3-Methoxy-phenyl)-oxazole-4-carboxylic acid{2-[4-(1,1-difluoro-ethyl)-thiazol-2-ylmethyl]-2H-[1,2,3]triazol-4-yl}-amide]
291 nM | CC(F)(F)c1csc(Cn2ncc(NC(=O)c3nc(C4CC4)oc3-c3ccccc3)n2)n1 [Example 9, 2-Cyclopropyl-5-phenyl-oxazole-4-carboxylic acid{2-[4-(1,1-difluoro-ethyl)-thiazol-2-ylmethyl]-2H-[1,2,3]triazol-4-yl}-amide]
6.3 nM | Cc1nc(C(=O)Nc2cnn(Cc3nc(C(C)(F)F)cs3)n2)c(-c2ccccc2)o1 [Example 10, 2-Methyl-5-phenyl-oxazole-4-carboxylic acid{2-[4-(1,1-difluoro-ethyl)-thiazol-2-ylmethyl]-2H-[1,2,3]triazol-4-yl}-amide]
9.9 nM | CC(F)(F)c1ccc(Cn2ncc(NC(=O)c3ncoc3-c3cccc(F)c3)n2)o1 [Example 11, 5-(3-Fluoro-phenyl)-oxazole-4-carboxylic acid {2-[5-(1,1-difluoro-ethyl)-furan-2-ylmethyl]-2H-[1,2,3]triazol-4-yl}-amide]
46 nM | CC(F)(F)c1csc(Cn2ncc(NC(=O)c3ncoc3-c3cccc(Cl)c3)n2)n1 [Example 12, 5-(3-Chloro-phenyl)-oxazole-4-carboxylic acid{2-[4-(1,1-difluoro-ethyl)-thiazol-2-ylmethyl]-2H-[1,2,3]triazol-4-yl}-amide]
1130 nM | Cc1cc(F)cc(-c2oc(C)nc2C(=O)Nc2cnn(Cc3nc(C(C)(F)F)cs3)n2)c1 [Example 13, 5-(3-Fluoro-5-methyl-phenyl)-2-methyl-oxazole-4-carboxylic acid{2-[4-(1,1-difluoro-ethyl)-thiazol-2-ylmethyl]-2H-[1,2,3]triazol-4-yl}-amide]
58 nM | Cc1nc(C(=O)Nc2cnn(Cc3nc(C(C)(F)F)cs3)n2)c(-c2cccc(OC(F)(F)F)c2)o1 [Example 14, 2-Methyl-5-(3-trifluoromethoxy-phenyl)-oxazole-4-carboxylic acid{2-[4-(1,1-difluoro-ethyl)-thiazol-2-ylmethyl]-2H-[1,2,3]triazol-4-yl}-amide]
23 nM | Cc1nc(C(=O)Nc2cnn(Cc3ccc(C(C)(F)F)o3)n2)c(-c2cccc(Cl)c2)o1 [Example 15, 5-(3-Chloro-phenyl)-2-methyl-oxazole-4-carboxylic acid{2-[5-(1,1-difluoro-ethyl)-furan-2-ylmethyl]-2H-[1,2,3]triazol-4-yl}-amide]
46 nM | CC(F)(F)c1ccc(Cn2ncc(NC(=O)c3ncoc3-c3ccc(F)cc3)n2)o1 [Example 16, 5-(4-Fluoro-phenyl)-oxazole-4-carboxylic acid{2-[5-(1,1-difluoro-ethyl)-furan-2-ylmethyl]-2H-[1,2,3]triazol-4-yl}-amide]
11 nM | Cc1cccc(-c2ocnc2C(=O)Nc2cnn(Cc3nc(C(C)(F)F)cs3)n2)c1 [Example 17, 5-m-Tolyl-oxazole-4-carboxylic acid {2-[4-(1,1-difluoro-ethyl)-thiazol-2-ylmethyl]-2H-[1,2,3]triazol-4-yl}-amide]
661 nM | Cc1nc(C(=O)Nc2cnn(Cc3ccc(C(C)(F)F)o3)n2)c(-c2cc(F)cc(F)c2)o1 [Example 18, 5-(3,5-Difluoro-phenyl)-2-methyl-oxazole-4-carboxylic acid {2-[5-(1,1-difluoro-ethyl)-furan-2-ylmethyl]-2H-[1,2,3]triazol-4-yl}-amide]
33 nM | CN(C)c1cccc(-c2ocnc2C(=O)Nc2cnn(Cc3ccc(C(C)(F)F)o3)n2)c1 [Example 19, 5-(3-Dimethylamino-phenyl)-oxazole-4-carboxylic acid {2-[5-(1,1-difluoro-ethyl)-furan-2-ylmethyl]-2H-[1,2,3]triazol-4-yl}-amide]
55 nM | CC(F)(F)c1csc(Cn2ncc(NC(=O)c3ncoc3-c3cccc(F)c3)n2)n1 [Example 20, 5-(3-Fluoro-phenyl)-oxazole-4-carboxylic acid {2-[4-(1,1-difluoro-ethyl)-thiazol-2-ylmethyl]-2H-[1,2,3]triazol-4-yl}-amide]
35 nM | COc1cccc(-c2ocnc2C(=O)Nc2cnn(Cc3ccc(C(C)(F)F)o3)n2)c1 [Example 21, 5-(3-Methoxy-phenyl)-oxazole-4-carboxylic acid {2-[5-(1,1-difluoro-ethyl)-furan-2-ylmethyl]-2H-[1,2,3]triazol-4-yl}-amide]
52 nM | CN(C)c1cccc(-c2ocnc2C(=O)Nc2cnn(Cc3nc(C(C)(F)F)cs3)n2)c1 [Example 22, 5-(3-Dimethylamino-phenyl)-oxazole-4-carboxylic acid {2-[4-(1,1-difluoro-ethyl)-thiazol-2-ylmethyl]-2H-[1,2,3]triazol-4-yl}-amide]
10 nM | Cc1cccc(-c2ocnc2C(=O)Nc2cnn(Cc3ccc(C(C)(F)F)o3)n2)c1 [Example 23, 5-m-Tolyl-oxazole-4-carboxylic acid {2-[5-(1,1-difluoro-ethyl)-furan-2-ylmethyl]-2H-[1,2,3]triazol-4-yl}-amide]
